According to patent US20240148821A1, “PHARMACEUTICAL USE OF CYCLIC PEPTIDE COMPOUND” (CHUGAI SEIYAKU KABUSHIKI KAISHA, priority 2021, published 2024):
Numbered stars: 1 amine (or outer) side, 2 acyl side, 3 side chain; on linkers, the order of the positions; unused ones are H or OH. Bridge positions count the residues as written; N and C are the ends. Square brackets hold non-standard residues; d marks the D form. Peptide text beside a SMILES is read from it. * marks the point of attachment. hPhe(3,5-F2-4-CF3) = N[C@@H](CCc1cc(F)c(C(F)(F)F)c(F)c1)C(=O)O; hPhe(3-Cl-4-CF3) = N[C@@H](CCc1ccc(C(F)(F)F)c(Cl)c1)C(=O)O; NMePhe(4-CF3) = CN[C@@H](Cc1ccc(C(F)(F)F)cc1)C(=O)O; NMeAbu(4,4,4-F3) = CN[C@@H](CC(F)(F)F)C(=O)O; X110 = Cc1ccc(I)cc1C[C@H](N[*:1])C(=O)[*:2]; NMeGly(cPent) = CN[C@H](C(=O)O)C1CCCC1; Phe(3-I) = N[C@@H](Cc1cccc(I)c1)C(=O)O; Pro(4,4-F2) = O=C(O)[C@@H]1CC(F)(F)CN1; NMeY = CN[C@@H](Cc1ccc(O)cc1)C(=O)O; NMeCha = CN[C@@H](CC1CCCCC1)C(=O)O; NMeChg = CN[C@H](C(=O)O)C1CCCCC1; NMeI = CC[C@H](C)[C@H](NC)C(=O)O; NMeD = CN[C@@H](CC(=O)O)C(=O)O; NMeL = CN[C@@H](CC(C)C)C(=O)O; Chg = N[C@H](C(=O)O)C1CCCCC1; NMeAbu = CC[C@H](NC)C(=O)O; NMeA = CN[C@@H](C)C(=O)O; NMeAib = CNC(C)(C)C(=O)O; Nle = CCCC[C@H](N)C(=O)O; Piperidide = C1CCN(*)CC1; Pra = C#CC[C@H](N)C(=O)O; Pyrrolidide = C1CCN(*)C1; Ac5c = NC1(C(=O)O)CCCC1; Aze = O=C(O)[C@@H]1CCN1; Sar = CNCC(=O)O

system: Human pancreatic cancer cell line AsPC-1 (G12D mutation Kras); test: AsPC-1 cell growth inhibition (AsPC-1 CGI); format: cell-based; conditions: read-out: AsPC-1 cell growth inhibition, 50% growth inhibitory concentration (IC50 value); 96 hours, CellTiter-Glo, values classified in ranges
Procedure: Test compounds were serially dilated with dimethyl sulfoxide, and 200 nL was then dispensed to a U-bottom 96-well plate using Labcyte Echo. […] The cell suspension was dispensed to a. plate containing a test compound at 100 μL per well and incubated at 37° C. in a 5% carbon dioxide gas incubator. 96 hours later, 80 μL of CellTiter-Glo (Promega) was added to each well and fluorescence was measured.

Row | SMILES | IC50 [nM]
1 | CC[C@H](C)[C@@H]1NC(=O)[C@H](CC(C)C)N(C)C(=O)C[C@@H](C(=O)N2CCCC2)N(C)C(=O)[C@H]([C@@H](C)CC)N(C)C(=O)C2(CCCC2)NC(=O)[C@@H]2CCCN2C(=O)[C@H](CCc2cc(F)c(C(F)(F)F)c(F)c2)NC(=O)CN(C)C(=O)[C@H](Cc2ccc(C(F)(F)F)cc2)N(C)C(=O)[C@@H]2CCN2C(=O)[C@H](C)N(C)C1=O [Compound 1343] ([NMeL]I[NMeA][Aze][NMePhe(4-CF3)][Sar][hPhe(3,5-F2-4-CF3)]P[Ac5c][NMeI][NMeD]-Pyrrolidide; lactam N-11) | ≤ 20
2 | CC[C@H](C)[C@@H]1NC(=O)[C@H](CC(C)C)N(C)C(=O)C[C@@H](C(=O)N2CCCCC2)N(C)C(=O)[C@H](C2CCCCC2)N(C)C(=O)C2(CCCC2)NC(=O)[C@@H]2CCCN2C(=O)[C@H](CCc2ccc(C(F)(F)F)c(Cl)c2)NC(=O)CN(C)C(=O)[C@H](CC2CCCCC2)N(C)C(=O)CN(C)C(=O)[C@H](C)N(C)C1=O [Compound 1345] ([NMeL]I[NMeA][Sar][NMeCha][Sar][hPhe(3-Cl-4-CF3)]P[Ac5c][NMeChg][NMeD]-Piperidide; lactam N-11) | > 500
3 | CC[C@H](C)[C@@H]1NC(=O)[C@H](CC(C)C)N(C)C(=O)C[C@@H](C(=O)N(C)C)N(C)C(=O)[C@H](C2CCCC2)N(C)C(=O)C2(CCCC2)NC(=O)[C@@H]2CC(F)(F)CN2C(=O)[C@H](CCc2cc(F)c(C(F)(F)F)c(F)c2)NC(=O)CN(C)C(=O)[C@H](CC2CCCCC2)N(C)C(=O)[C@@H]2CCN2C(=O)[C@H](C)N(C)C1=O [Compound 1346] ([NMeL]I[NMeA][Aze][NMeCha][Sar][hPhe(3,5-F2-4-CF3)][Pro(4,4-F2)][Ac5c][NMeGly(cPent)][NMeD]-NMe2; lactam N-11) | ≤ 20
4 | C#CC[C@@H]1NC(=O)[C@H](Cc2cccc(I)c2)NC(=O)CN(C)C(=O)[C@H](Cc2ccc(OC)cc2)N(C)C(=O)[C@@H]2CCN2C(=O)[C@H](C)N(C)C(=O)[C@H]([C@@H](C)CC)NC(=O)[C@H](CC(C)C)N(C)C(=O)C[C@@H](C(=O)N2CCCCC2)N(C)C(=O)[C@H](CC(C)C)NC(=O)C(C)(C)N(C)C1=O [Compound 1350] ([NMeL]I[NMeA][Aze][NMeY](Me)[Sar][Phe(3-I)][Pra][NMeAib]L[NMeD]-Piperidide; lactam N-11) | > 500
5 | CC[C@H](C)[C@@H]1NC(=O)[C@H](CC(C)C)N(C)C(=O)C[C@@H](C(=O)N2CCCCC2)N(C)C(=O)[C@H](C2CCCCC2)NC(=O)C2(CCCC2)NC(=O)[C@@H]2CCCN2C(=O)[C@H](CCc2ccc(C(F)(F)F)c(Cl)c2)NC(=O)CN(C)C(=O)[C@H](CC2CCCCC2)N(C)C(=O)CN(C)C(=O)CN(C)C1=O [Compound 1354] ([NMeL]I[Sar][Sar][NMeCha][Sar][hPhe(3-Cl-4-CF3)]P[Ac5c][Chg][NMeD]-Piperidide; lactam N-11) | > 500
6 | CC[C@H](C)[C@@H]1NC(=O)[C@H](CC(F)(F)F)N(C)C(=O)C[C@@H](C(=O)N2CCCC2)N(C)C(=O)[C@H](C2CCCCC2)N(C)C(=O)C2(CCCC2)NC(=O)[C@@H]2CC(F)(F)CN2C(=O)[C@H](CCc2ccc(C(F)(F)F)c(Cl)c2)NC(=O)CN(C)C(=O)[C@H](CC2CCCCC2)N(C)C(=O)CN(C)C(=O)CN(C)C1=O [Compound 1357] ([NMeAbu(4,4,4-F3)]I[Sar][Sar][NMeCha][Sar][hPhe(3-Cl-4-CF3)][Pro(4,4-F2)][Ac5c][NMeChg][NMeD]-Pyrrolidide; lactam N-11) | ≤ 20
7 | CCCC[C@@H]1NC(=O)[C@H](Cc2cc(I)ccc2C)NC(=O)CN(C)C(=O)[C@H](Cc2ccc(OC)cc2)N(C)C(=O)[C@@H]2CCN2C(=O)[C@H](C)N(C)C(=O)[C@H]([C@@H](C)CC)NC(=O)[C@H](CC)N(C)C(=O)C[C@@H](C(=O)N2CCCCC2)N(C)C(=O)[C@H](CC(C)C)NC(=O)C(C)(C)N(C)C1=O [Compound 1358] ([NMeAbu]I[NMeA][Aze][NMeY](Me)[Sar][X110][Nle][NMeAib]L[NMeD]-Piperidide; lactam N-11) | > 500
